Laboratory results: patent US20080118940A1, “PROTEASOMAL PEPTIDASE ACTIVITY AND THE USE THEREOF IN CLINICAL APPLICATIONS” (priority 2006, published 2008)

What was measured:
[1] = tested on: proteasomal trypsin-like activity (Tr-L); assay: Proteasome inhibitor effect on trypsin-like (Tr-L) peptidase activity, fluorogenic BZ-VGR-AMC assay; type: biochemical, human; conditions: purified proteasome, plasma and white blood cell lysate; YU-101 0.4 μg/mL; substrate 200 μM
Experimental: (§1) Ch-L, Tr-L, and Cas-L activities in peripheral blood plasma from patients were measured as follows. Frozen patient plasma samples were processed by thawing at room temperature and mixed thoroughly. 45 μL of thawed plasma was pipetted into a microfuge tube (Tube 1), and 22.5 μL plasma was pipetted into another microfuge tube (Tube 2). 5 μL 10% SDS was pipetted into Tube 1, and 2.5 μL 10% tween 20 was pipetted into Tube 2. Each tube was mixed and incubated at room temperature for 15 minutes resulting in processed samples. All buffers, substrate stock solutions, controls, and microwell plates were equilibrated to room temperature. The proteasome control was placed on ice immediately after thawing. […] Cleavage of substrate was detected using the SPECTRAmax GEMINI EM instrument with SoftMax Pro data Collection software. […] Fluorescence excitation and emission wavelengths were 380 nm and 460 nm, respectively. Samples were read at 1 minute intervals over 30 minutes. Green fluorescence was detected in columns 1, 4, 7, and 10, representing Ch-L activity; blue fluorescence was detected in columns 3, 6, 9, and 12, representing Cas-L activity; and yellow fluorescence was detected in columns 2, 5, 8, and 11, representing Tr-L activity. […]

[2] = target: T1, human pancreatic α-chymotrypsin (Homo sapiens, UniProt P17538); assay: Specificity of proteasomal enzymatic assay: pancreatic chymotrypsin activity; type: biochemical; conditions: Suc-LLVY-AMC
T1 construct: purchased Sigma C-8946; host or cells: isolated from human pancreas
Experimental: as §1

[3] = target: T2, proteasomal caspase-like activity (Cas-L) (Homo sapiens, UniProt P28072); assay: Proteasome inhibitor effect on caspase-like (Cas-L) peptidase activity, fluorogenic Z-LLE-AMC assay; type: biochemical; conditions: purified proteasome, plasma and white blood cell lysate; YU-101 0.4 μg/mL; substrate 200 μM
T2 construct: in samples of purified proteasome, plasma, and white blood cell lysate; from tissue; host or cells: purified proteasome; plasma; white blood cell lysate (normal individuals)
T2 sequence (P28072 1-239): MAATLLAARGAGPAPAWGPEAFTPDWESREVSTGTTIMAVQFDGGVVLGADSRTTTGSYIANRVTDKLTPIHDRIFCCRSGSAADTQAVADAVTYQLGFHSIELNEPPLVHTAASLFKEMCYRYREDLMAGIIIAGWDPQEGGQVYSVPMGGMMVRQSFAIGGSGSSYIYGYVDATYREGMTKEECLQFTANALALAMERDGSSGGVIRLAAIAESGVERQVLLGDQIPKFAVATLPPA
Experimental: as §1

[4] = tested on: proteasome Ch-L activity in whole blood cell lysate from a normal individual; assay: Dose response of Ch-L activity in whole blood lysate from a normal individual; type: biochemical, human; set-up: Activity: unit not given beside the values; conditions: for % Inhibition / Activity: whole blood, normal individual
Experimental: (§2) Ch-L, Tr-L, and Cas-L activities in peripheral blood plasma from patients were measured as follows. Frozen patient plasma samples were processed by thawing at room temperature and mixed thoroughly. 45 μL of thawed plasma was pipetted into a microfuge tube (Tube 1), and 22.5 μL plasma was pipetted into another microfuge tube (Tube 2). 5 μL 10% SDS was pipetted into Tube 1, and 2.5 μL 10% tween 20 was pipetted into Tube 2. Each tube was mixed and incubated at room temperature for 15 minutes resulting in processed samples. All buffers, substrate stock solutions, controls, and microwell plates were equilibrated to room temperature. The proteasome control was placed on ice immediately after thawing. Substrate working solutions (1 mM) were made by adding 950 μL buffer A (1×HEPES/0.05% SDS) to 50 μL stock solution of Ch-L and Cas-L substrates (20 mM Suc-LLVY-AMC and 20 mM Z-LLE-AMC) and mixed. 950 μL buffer B (1×HEPES/0.05% Tween 20) was added to 50 μL stock solution of Tr-L substrate (20 mM BZ-VGR-AMC) and mixed. Working solutions were protected from light. A microwell plate (containing 12 columns of wells) was set-up according to a plate map as follows: 30 μL buffer A was pipetted into the wells of columns 1, 4, 7, and 10 (to measure Ch-L activity) and 3, 6, 9, and 12 (to measure Cas-L activity). 30 μL buffer B was pipetted into the wells of columns 2, 5, 8, and 11 (to measure Tr-L). 10 μL buffer A or B served as blank controls. 10 μL of processed samples were pipetted into duplicate wells for each substrate (i.e., 6 wells per processed plasma sample), to the designated wells according to the plate map. 10 μL of substrate was added to the designated wells according to the plate map. The final concentration of substrate was 200 μM. Cleavage of substrate was detected using the SPECTRAmax GEMINI EM instrument with SoftMax Pro data Collection software. The instrument incubation chamber temperature was set to 37° C. Fluorescence excitation and emission wavelengths were 380 nm and 460 nm, respectively. Samples were read at 1 minute intervals over 30 minutes. Green fluorescence was detected in columns 1, 4, 7, and 10, representing Ch-L activity; blue fluorescence was detected in columns 3, 6, 9, and 12, representing Cas-L activity; and yellow fluorescence was detected in columns 2, 5, 8, and 11, representing Tr-L activity.
A dose response study was conducted to determine the effect of concentration of YU-101 on Ch-L activity in a whole blood lysate from a normal individual. YU-101 (200 ng/μL) was serially diluted 1:2 in HEPES buffer to produce solutions having concentrations of 6.25, 12.5, 25, 50, and 100 ng/μL for dose response experiments. 70 μL of […] was combined with 1 μL inhibitor solution and incubated at room temperature for 15 minutes. Ch-L activity was determined as in Example 1.

[5] = tested on: proteasomal chymotrypsin-like activity (Ch-L); assay: Proteasome inhibitor effect on chymotrypsin-like (Ch-L) peptidase activity, fluorogenic Suc-LLVY-AMC assay; type: biochemical, human; conditions: purified proteasome, plasma and white blood cell lysate; YU-101 0.4 μg/mL; substrate 200 μM
Experimental: as §1

[6] = target: T3, Pure human 20S proteasome (Homo sapiens, UniProt P28074); assay: Specificity of proteasomal enzymatic assay: Ch-L activity of purified 20S proteasome; type: biochemical; conditions: Suc-LLVY-AMC
T3 construct: purchased Biomol International PW8720-0050

[7] = tested on: proteasome Ch-L activity in plasma from an AML patient; assay: Dose response of Ch-L activity in plasma from an AML patient; type: biochemical, human; conditions: for % Inhibition / Activity: AML patient plasma
Experimental: as §2
A dose response study was conducted to determine the effect of concentration of YU-101 on Ch-L activity as assayed in plasma from an AML patient. YU-101 (200 ng/μL) was serially diluted 1:4 in HEPES buffer to produce solutions having concentrations of 0.78, 3.125, 12.5, 50, and 200 ng/μL for dose response experiments. 70 μL of plasma from an AML patient was combined with 1 μL inhibitor solution and incubated at room temperature for 15 minutes. Ch-L activity was determined as in Example 1.

T1 sequence (P17538 34-164 limits assumed, other chains not shown): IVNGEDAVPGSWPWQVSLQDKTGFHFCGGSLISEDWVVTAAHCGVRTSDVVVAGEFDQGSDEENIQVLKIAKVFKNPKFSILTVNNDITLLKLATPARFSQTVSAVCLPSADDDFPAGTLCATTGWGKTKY
T1 sequence (P17538 167-263 limits assumed, other chains not shown): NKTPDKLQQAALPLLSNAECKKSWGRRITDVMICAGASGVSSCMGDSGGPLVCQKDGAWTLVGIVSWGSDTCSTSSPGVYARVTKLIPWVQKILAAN

CC(=O)NC(CCc1ccccc1)C(=O)NC(CC(C)C)C(=O)NC(Cc1ccccc1)C(=O)NC(CC(C)C)C(=O)C1(C)CO1 (centres unmarked) [YU-101]
inhibition of trypsin-L activity [1]: weaker inhibitor | Vmax Ch-L (fluorescence) ([2]; pancreatic α-chymotrypsin + YU-101, final 4 ng/μL): No activity | inhibition of caspase-L activity [3]: weaker inhibitor | inhibition of Ch-L activity, dose dependence ([4]; whole blood cell lysate from a normal individual): dose-dependent | % Inhibition ([4]; approx. YU-101 0.0125 ng/μL): 3.2% | Activity ([4]; approx. YU-101 0.0125 ng/μL): 92002 | % Inhibition ([4]; approx. YU-101 0.025 ng/μL): 24.0% | Activity ([4]; approx. YU-101 0.025 ng/μL): 72252 | % Inhibition ([4]; approx. YU-101 0.05 ng/μL): 38.4% | Activity ([4]; approx. YU-101 0.05 ng/μL): 58544 | % Inhibition ([4]; approx. YU-101 0.1 ng/μL): 82.0% | Activity ([4]; approx. YU-101 0.1 ng/μL): 17070 | % Inhibition ([4]; approx. YU-101 0.2 ng/μL): 92.6% | Activity ([4]; approx. YU-101 0.2 ng/μL): 7024 | inhibition of chymotrypsin-L activity [5]: strong inhibitor | Vmax Ch-L (fluorescence) ([6]; purified 20S proteasome + YU-101, final 4 ng/μL): No activity | % Inhibition ([7]; approx. YU-101 0.00156 ng/μL): 0.00% | Activity ([7]; approx. YU-101 0.00156 ng/μL): 233781 | % Inhibition ([7]; approx. YU-101 0.00625 ng/μL): 8.98% | Activity ([7]; approx. YU-101 0.00625 ng/μL): 212786 | % Inhibition ([7]; approx. YU-101 0.025 ng/μL): 38.41% | Activity ([7]; approx. YU-101 0.025 ng/μL): 143991 | % Inhibition ([7]; approx. YU-101 0.1 ng/μL): 62.54% | Activity ([7]; approx. YU-101 0.1 ng/μL): 87573 | % Inhibition ([7]; approx. YU-101 0.4 ng/μL): 69.56% | Activity ([7]; approx. YU-101 0.4 ng/μL): 71162 | inhibition of Ch-L activity, dose dependence ([7]; plasma of an AML patient): dose-dependent

B1: α1-anti-chymotrypsin: pancreatic chymotrypsin inhibitor (Sigma, catalog #A9285) (protein, UniProt P01011 24-423, looked up)
Alpha-1-antichymotrypsin: HPNSPLDEENLTQENQDRGTHVDLGLASANVDFAFSLYKQLVLKAPDKNVIFSPLSISTALAFLSLGAHNTTLTEILKGLKFNLTETSEAEIHQSFQHLLRTLNQSSDELQLSMGNAMFVKEQLSLLDRFTEDAKRLYGSEAFATDFQDSAAAKKLINDYVKNGTRGKITDLIKDLDSQTMMVLVNYIFFKAKWEMPFDPQDTHQSRFYLSKKKWVMVPMMSLHHLTIPYFRDEELSCTVVELKYTGNASALFILPDQDKMEEVEAMLLPETLKRWRDSLEFREIGELYLPKFSISRDYNLNDILLQLGIEEAFTSKADLSGITGARNLAVSQVVHKAVLDVFEEGTEASAATAVKITLLSALVETRTIVRFNRPFLMIIVPTDTQNIFFMSKVTNPKQA
Vmax Ch-L (fluorescence) ([2]; pancreatic α-chymotrypsin + α1-anti-chymotrypsin, final 40 ng/μL): No activity | Vmax Ch-L (fluorescence) ([6]; purified 20S proteasome + α1-anti-chymotrypsin, final 40 ng/μL): 121,813
